Source: ChEMBL document CHEMBL1649554, “Specific therapeutic schemes of omeprazole affect the orientation of Helicobacter pylori” (Antimicrob Agents Chemother, 2009)
The source made the active and inactive calls. The rule behind the calls is not given here.

What was measured:
Helicobacter pylori [1] = experiment: (§1) Antibacterial activity against Helicobacter pylori SS1 infected in Mongolian gerbils assessed as bacterial disorientation in 0 to 15 um above the Juxtamucosal layer at 0.25 mg, ip administered as two doses of solvent measured after 90 mins post last dose (reference value: 4560+/-400 bacteria per nl of mucus); format: functional, organism-based
Helicobacter pylori [2] = experiment: Antibacterial activity against Helicobacter pylori SS1 infected in Mongolian gerbils assessed as bacterial disorientation in 0 to 15 um above the Juxtamucosal layer at 20 uM, ip administered as single dose through dialysis measured after 90 mins post last dose; format: functional, organism-based
[3] = Cmax in Mongolian gerbils plasma at 0.5 mg, ip; format: ADME, organism-based, Meriones unguiculatus; set-up: dose 0.5 mg, route intraperitoneal; details: gerbil
Helicobacter pylori [4] = experiment: Antibacterial activity against Helicobacter pylori SS1 infected in Mongolian gerbils assessed as bacterial disorientation in luminal mucus layer at 20 uM, ip administered as single dose through dialysis measured after 90 mins post last dose; format: functional, organism-based
Helicobacter pylori [5] = experiment: Antibacterial activity against Helicobacter pylori SS1 infected in Mongolian gerbils assessed as bacterial disorientation in 15 to 25 um above the Juxtamucosal layer at 20 uM, ip administered as single dose through dialysis measured after 90 mins post last dose; format: functional, organism-based
Helicobacter pylori [6] = experiment: Antibacterial activity against Helicobacter pylori SS1 infected in Mongolian gerbils assessed as bacterial density in mucus in 0 to 15 um above the Juxtamucosal layer at 100 uM, ip administered as single dose through dialysis measured after 90 mins post last dose; format: functional
Helicobacter pylori [7] = experiment: Antibacterial activity against Helicobacter pylori SS1 infected in Mongolian gerbils assessed as bacterial density in mucus in 15 to 25 um above the Juxtamucosal layer at 100 uM, ip administered as single dose through dialysis measured after 90 mins post last dose; format: functional
Helicobacter pylori [8] = experiment: Antibacterial activity against Helicobacter pylori SS1 infected in Mongolian gerbils assessed as bacterial disorientation in luminal mucus layer at 0.25 mg, ip administered as two doses in 24 hrs dosing interval measured after 90 mins post last dose; format: functional, organism-based
Helicobacter pylori [9] = experiment: Antibacterial activity against Helicobacter pylori SS1 infected in Mongolian gerbils assessed as bacterial orientation in 0 to 15 um above the Juxtamucosal layer at 0.25 mg, ip administered as two subsequent doses in 8 hrs dosing interval; format: functional, organism-based
Helicobacter pylori [10] = experiment: (§2) Antibacterial activity against Helicobacter pylori SS1 infected in Mongolian gerbils assessed as bacterial disorientation in luminal mucus layer at 0.25 mg, ip administered as two doses of solvent measured after 90 mins post last dose (reference value: 4560+/-400 bacteria per nl of mucus); format: functional, organism-based
Helicobacter pylori [11] = experiment: Antibacterial activity against Helicobacter pylori SS1 infected in Mongolian gerbils assessed as decrease in bacterial density in mucus in 0 to 15 um above the Juxtamucosal layer at 0.25 mg, ip administered as single dose for 5 days measured after 90 mins post last dose; format: functional; set-up: scale not given: the % may be the effect or the level left
Helicobacter pylori [12] = experiment: as §1, with “density in mucus” for “disorientation”, “in 24 hrs dosing interval” for “of solvent”; format: functional
Helicobacter pylori [13] = experiment: Antibacterial activity against Helicobacter pylori SS1 infected in Mongolian gerbils assessed as bacterial orientation in 0 to 15 um above the Juxtamucosal layer at 35 ug/ml administered as single dose in 8 hrs dosing interval; format: functional, organism-based
Helicobacter pylori [14] = experiment: Antibacterial activity against Helicobacter pylori SS1 infected in Mongolian gerbils assessed as bacterial disorientation in central mucus layer at 0.25 mg, ip administered as two doses in 24 hrs dosing interval measured after 90 mins post last dose; format: functional, organism-based
Helicobacter pylori [15] = experiment: Antibacterial activity against Helicobacter pylori SS1 infected in Mongolian gerbils assessed as bacterial disorientation in 15 to 25 um above the Juxtamucosal layer at 0.25 mg, ip followed by second dose administered as solvent in 24 hrs dosing interval measured after 90 mins post last dose; format: functional, organism-based
Helicobacter pylori [16] = experiment: Antibacterial activity against Helicobacter pylori SS1 infected in Mongolian gerbils assessed as bacterial orientation in luminal mucus layer at 35 ug/ml administered as single dose in 8 hrs dosing interval; format: functional, organism-based
Helicobacter pylori [17] = experiment: (§3) Antibacterial activity against Helicobacter pylori SS1 infected in Mongolian gerbils assessed as bacterial density in mucus in central mucus layer at 0.25 mg, ip followed by second dose administered as solvent in 24 hrs dosing interval measured after 90 mins post last dose (reference value: 90+/-60 bacteria per nl of mucus); format: functional
Helicobacter pylori [18] = experiment: as §1, with “density in mucus” for “disorientation”, “in 8 hrs dosing interval” for “of solvent”; format: functional
Helicobacter pylori [19] = experiment: as §3, with “ip” for “ip followed by second dose”, “two doses” for “solvent”, “8” for “24”; format: functional
Helicobacter pylori [20] = experiment: as §2, with “density in mucus” for “disorientation”, “solvent in 24 hrs dosing interval” for “solvent”, “60+/-50” for “4560+/-400”; format: functional
Helicobacter pylori [21] = experiment: Antibacterial activity against Helicobacter pylori SS1 infected in Mongolian gerbils assessed as bacterial orientation in central layer at 0.25 mg, ip administered as two subsequent doses in 8 hrs dosing interval; format: functional, organism-based
Helicobacter pylori [22] = experiment: Antibacterial activity against Helicobacter pylori SS1 infected in Mongolian gerbils assessed as decrease in bacterial density in mucus in 15 to 25 um above the Juxtamucosal layer at 0.25 mg, ip administered as single dose for 5 days measured after 90 mins post last dose; format: functional; set-up: scale not given: the % may be the effect or the level left
Helicobacter pylori [23] = experiment: as §1, with “density in mucus” for “disorientation”, “solvent in 24 hrs dosing interval” for “solvent”; format: functional
Helicobacter pylori [24] = experiment: Antibacterial activity against Helicobacter pylori SS1 infected in Mongolian gerbils assessed as bacterial disorientation in central mucus layer at 0.25 mg, ip administered as two doses in 8 hrs dosing interval measured after 90 mins post last dose; format: functional, organism-based
Helicobacter pylori [25] = experiment: Antibacterial activity against Helicobacter pylori SS1 infected in Mongolian gerbils assessed as bacterial density in mucus in luminal mucus layer at 20 uM, ip administered as single dose through dialysis measured after 90 mins post last dose (reference value: 60+/-50 bacteria per nl of mucus); format: functional
Helicobacter pylori [26] = experiment: as §3, with “15 to 25 um above the Juxtamucosal” for “central mucus”, “2280+/-430” for “90+/-60”; format: functional
Helicobacter pylori [27] = experiment: as §3, with “ip” for “ip followed by second dose”, “two doses” for “solvent”; format: functional
Helicobacter pylori [28] = experiment: Antibacterial activity against Helicobacter pylori SS1 infected in Mongolian gerbils assessed as bacterial disorientation in 0 to 15 um above the Juxtamucosal layer at 0.25 mg, ip administered as two doses in 8 hrs dosing interval measured after 90 mins post last dose; format: functional, organism-based

SMILES: COc1ccc2[nH]c([S+]([O-])Cc3ncc(C)c(OC)c3C)nc2c1 (stereo not drawn) [OMEPRAZOLE]
- Activity (Helicobacter pylori [1]): Active
- Activity (Helicobacter pylori [2]): Active
- Cmax [3]: 20 µM
- Activity (Helicobacter pylori [4]): inactive
- Activity (Helicobacter pylori [5]): inactive
- Activity (Helicobacter pylori [6]): 570 nL⁻¹
- Activity (Helicobacter pylori [7]): 330 nL⁻¹
- Activity (Helicobacter pylori [8]): inactive
- Activity (Helicobacter pylori [9]): inactive
- Activity (Helicobacter pylori [10]): inactive
- Activity (Helicobacter pylori [11]): 5%
- Activity (Helicobacter pylori [12]): 3310 nL⁻¹
- Activity (Helicobacter pylori [13]): inactive
- Activity (Helicobacter pylori [14]): inactive
- Activity (Helicobacter pylori [15]): inactive
- Activity (Helicobacter pylori [16]): inactive
- Activity (Helicobacter pylori [17]): 140 nL⁻¹
- Activity (Helicobacter pylori [18]): 4170 nL⁻¹
- Activity (Helicobacter pylori [19]): 30 nL⁻¹
- Activity (Helicobacter pylori [20]): 70 nL⁻¹
- Activity (Helicobacter pylori [21]): inactive
- Activity (Helicobacter pylori [22]): 5%
- Activity (Helicobacter pylori [23]): 5740 nL⁻¹
- Activity (Helicobacter pylori [24]): inactive
- Activity (Helicobacter pylori [25]): 50 nL⁻¹
- Activity (Helicobacter pylori [26]): 2030 nL⁻¹
- Activity (Helicobacter pylori [27]): 300 nL⁻¹
- Activity (Helicobacter pylori [28]): Active
